Take `CC1(C)[C@@H]2CC3[C@H](C(N)=O)[C@@]3(C)C[C@@H]21` (stereo partly drawn) [Example 3, (1S,3S,4S,7R)-3,8,8-trimethyltricyclo[5.1.0.0^3,5]octane-4-carboxamide]: the melting point (as a rule, the temperature, or range, at which the solid turns liquid) is 121.5 to 122.5 °C. `CC1(C)[C@@H]2CC3[C@H](C(=O)NCC(N)=O)[C@@]3(C)C[C@@H]21` (stereo partly drawn) [Example 4, (1S,3S,4S,7R)-N-(2-amino-2-oxoethyl)-3,8,8-trimethyltricyclo [5.1.0.0^3,5]octane-4-carboxamide] came in with a melting point of 169.2 to 169.7 °C. To `CC1(C)[C@@H]2CC3[C@H](C(=O)O)[C@@]3(C)C[C@@H]21` (stereo partly drawn) (hydrate or solvate) [Example 1, (1S,3S,4S,7R)-3,8,8-trimethyltricyclo[5.1.0.0^3,5]octane-4-carboxylic acid] belongs 86 °C.

The record behind these values is US20040209859A1, “Fused cycloalkyl amides and acids and their therapeutic applications” (priority 2002, published 2004).
